Data set [1] can be described thus: Effect of elevated temperature on appearance and handling properties (hot air oven, Petri dishes). The data set is classed as physicochemical. As to conditions: for Appearance and handling properties at elevated temperature: hot air oven. An excerpt:
The affect of elevated temperature on appearance and handling properties on the orlistat compositions of this invention was studied by slowly increasing the temperature of a hot air oven in which these compositions were kept in Petri dishes. Pure orlistat also was subjected to this study. To carry out a comparison with the innovator's formulation Xenical®, its contents were emptied in a Petri dish. The observations of this study are given below—

The conditions of data set [2]: within the physiological pH range; cited from earlier work.

Consider `CCCCCCCCCCC[C@@H](C[C@@H]1OC(=O)[C@H]1CCCCCC)OC(=O)[C@H](CC(C)C)NC=O` [Orlistat, orlistat], for which the “Appearance and handling properties at elevated temperature” value is given as “No change” in data set [1] (30 ° C.); “-do-” in data set [1] (35 ° C., -do- = same as cell above); “softens” in data set [1] (37 ° C., -do- = same as cell above); “Starts melting” in data set [1] (40 ° C.); “Melts” in data set [1] (45 ° C., cells wrap: 'Slightly soft and sticky', 'Melts completely'); “-do-” in data set [1] (50 ° C., -do- = same as cell above, Xenical cell wraps: 'Slightly soft and sticky, becomes powdery on touching'). For the same molecule, in data set [1] (Cooled down to less than 30° C., cells wrap: 'Regains its original hardness', 'Does not retain its original appearance'), the “Appearance and hardness after heating” value is “Does not retain”. In addition, the solubility in water result in data set [2] was “very low solubility”.

These data come from patent publication US20100317642A1, “PHARMACEUTICAL COMPOSITION OF ORLISTAT” (INVENTIS DDS PVT LIMITED, priority 2007, published 2010).
